For orientation: Cmax means the highest concentration seen after dosing.

We go through two compounds from patent US20250059139A1, “COMPOUNDS FOR TREATMENT OF CANCER” (THE JOHNS HOPKINS UNIVERSITY, priority 2021, published 2025).

One series has as its system panel of 68 kinases. Description: Targeted kinase screen (Kinase Profiling Service, Thermo Fisher Scientific). The format is biochemical. To be noted: 10 μM. How it is done: Targeted kinase screen. Inhibition of enzymatic activity of a panel of kinases in the presence of 10 μM ESATA-20 was analyzed by the Kinase Profiling Service at Thermo Fisher Scientific.
Another series concerns mCRPC patients. The settings on record: cited from earlier work.
The target in the next series is T1, fl-HDAC4 (Homo sapiens, UniProt P56524).
T1 construct: Full-length (fl) [A.A. 1-1082] recombinant human histone deacetylase 4 (rhHDAC4) protein; FLAG (N); GST (given as 'with or without'); made in house; host or cells: HEK293-T
T1 sequence (P56524 whole entry): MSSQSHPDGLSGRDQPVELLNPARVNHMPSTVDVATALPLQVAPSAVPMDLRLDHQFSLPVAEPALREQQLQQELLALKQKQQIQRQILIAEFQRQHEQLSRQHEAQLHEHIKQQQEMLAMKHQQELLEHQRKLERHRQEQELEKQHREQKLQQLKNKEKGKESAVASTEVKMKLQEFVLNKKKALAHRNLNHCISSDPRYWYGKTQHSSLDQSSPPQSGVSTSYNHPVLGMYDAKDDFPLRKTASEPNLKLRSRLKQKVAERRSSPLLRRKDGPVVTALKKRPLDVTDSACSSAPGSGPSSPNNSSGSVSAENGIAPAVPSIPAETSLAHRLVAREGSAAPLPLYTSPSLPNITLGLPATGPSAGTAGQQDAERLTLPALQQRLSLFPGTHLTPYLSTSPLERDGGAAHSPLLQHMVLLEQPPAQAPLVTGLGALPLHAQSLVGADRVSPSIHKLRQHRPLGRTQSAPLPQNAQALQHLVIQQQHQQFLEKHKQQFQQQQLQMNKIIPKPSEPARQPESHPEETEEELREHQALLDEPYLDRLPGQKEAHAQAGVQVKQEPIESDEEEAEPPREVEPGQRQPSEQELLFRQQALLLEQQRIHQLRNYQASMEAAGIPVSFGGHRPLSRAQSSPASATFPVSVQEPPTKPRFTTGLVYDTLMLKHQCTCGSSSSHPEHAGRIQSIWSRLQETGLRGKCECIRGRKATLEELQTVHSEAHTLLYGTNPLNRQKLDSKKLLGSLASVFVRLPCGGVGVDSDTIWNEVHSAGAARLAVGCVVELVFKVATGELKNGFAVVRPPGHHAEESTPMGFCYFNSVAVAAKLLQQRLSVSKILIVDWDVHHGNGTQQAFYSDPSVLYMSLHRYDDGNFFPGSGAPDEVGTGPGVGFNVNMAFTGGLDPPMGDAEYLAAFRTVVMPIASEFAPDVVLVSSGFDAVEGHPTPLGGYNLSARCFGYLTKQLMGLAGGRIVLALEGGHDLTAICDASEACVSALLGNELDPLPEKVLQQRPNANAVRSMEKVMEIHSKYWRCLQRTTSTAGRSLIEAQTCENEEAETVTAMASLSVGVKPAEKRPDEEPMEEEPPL
Description: HDAC4 enzymatic assay with Lys(Tfa)-AMC substrate. The format is biochemical. The procedure: HDAC4 Enzymatic Assay. HDAC4 activity of the various recombinant forms used through these studies was assayed using the small non-protein Lys(Tfa)-AMC as described previously (Bottomley et al. J. Biol. Chem. 2008, 283:26694-26704). The specificity of this assay is documented via its inhibition by a small molecule trifluoroacetylthiophene-trifluoromethylketone derivative (TFT-PIP) described previously (id.).
Thus, TasQ's inhibition of HDAC4/NCoR1 formation involves only its binding to HDAC4. To resolve whether such TasQ binding involves the ZCD vs. ZRD in HDAC4, we took advantage of the fact that while HDAC4 has only marginal deacetylase activity against acetylated lysine-containing proteins, it can deacetylate a small non-protein trifluoroacetamide substrate (a.k.a., Lys(Tfa)-AMC). This reaction is inhibited by a small molecule trifluoroacetylthiophene-trifluoromethylketone derivative [a.k.a., TFT-PIP (FIG. 16)] due to its binding to the catalytic Zn^2+ in the ZCD, which locks the ZRD in the open conformation (Bottomley 2008).

The subject of series [1] is LNCaP and LNCaP/AHR-KD xenografts. As to the kind of experiment: In vivo growth of LNCaP vs. LNCaP/AHR-KD xenografts in intact male hosts. Also noted: species or system human. To be noted: daily oral 10 mg/kg/d from day 53 post-inoculation. The source says:
Prostate Cancer Models. The source, history, and characteristics of the human prostate cancer cell lines and PDXs used, as well as cell culture conditions for their in vitro maintenance and the in vivo protocol for xenograft growth in triple immune-deficient NSG (i.e. NOD.Cg-PrkdcScidIl2rgtmlWji/Szj), adult (>8 week old) male mice obtained from the Sidney Kimmel Comprehensive Cancer Center (SKCCC) Animal Core Facility are described previously (Isaacs 2013; Brennen et al. JCI Insight. 2021, 6(8):e146827; Zhu et al. Oncogene 2020, 39(45): 6935-6949). […] In vitro growth curves were determined as described (Isaacs 2013). In vivo growth response to oral daily TasQ (10 mg/kg/d) of TRAMP-C2 mouse prostate cancers was evaluated in C57BL/6J syngeneic wild type vs. NOX-2 vs. iNOS null male mice obtained from Jackson Laboratory (Bar Harbor, ME). Growth response to oral daily TasQ (10 mg/kg/d) of TRAMP-C2 and B6CaP mouse prostate cancers was also evaluated in S100A9 null C57BL′6J male mice obtained from Dmitry Gabrilovich (Wistar Institute). […] In vitro growth curves were determined as described (Isaacs 2013). Growth response to daily oral TasQ vs. ESATA-20 (both at 10 mg/kg/d) of Myc-CaP-CR mouse prostate cancer was evaluated in syngeneic FVB/NJ castrate male mice from Jackson Laboratory. […]

The subject of series [2] is AHR protein in LNCaP cells. As to the kind of experiment: AHR translocation and downregulation in LNCaP cells (immunoblot). Type of series: cell-based, human. The settings on record: TasQ 10 μM. The procedure: Western Blot Analysis. Analysis and quantification of protein expression via immunoblot was performed as previously described (Brennen 2021). All assays were performed with total cell lysates from an equal number (i.e., 100,000) of cells loaded per lane for accurate comparisons across cell lines and conditions.

Another series has as its system HIF-1α protein in tumors. To be noted: daily oral 10 mg/kg/d; cited from earlier work.
Series [3] relates to prostate cancer xenografts. The settings on record: daily oral 10 mg/kg/d; cited from earlier work.

`COc1cccc2c1c(O)c(C(=O)N(c1ccc(C(F)(F)F)cc1)C1CCCCC1)c(=O)n2C` [ESATA-20]: the “change in activity in any of the 68 kinases tested” value in the series on panel of 68 kinases is less than 15%.
For `COc1cccc2c1c(O)c(C(=O)N(C)c1ccc(C(F)(F)F)cc1)c(=O)n2C` [TasQ, Tasquinimod], the “reduction of the risk of radiographic progression or death vs. placebo” value with mCRPC patients (Phase III, oral 1 mg/day, mCRPC patients on ADT) was 36%. In addition, in the series on mCRPC patients (Phase III, oral 1 mg/day), the overall survival entry is reported as “not enhanced”. The Cmax in the series on mCRPC patients (human, in vivo, 1 mg) was roughly 500 nM. Also, in the series with mCRPC patients (human, in vivo), the “maximum tolerated dose (MTD) in humans” value is given as 1 mg. The “effect on enzymatic activity of fl-HDAC4” value on fl-HDAC4 is on record as “did not inhibit”. Further, in series [1], the “growth response of LNCaP and LNCaP/AHR-KD xenografts” value was “equally inhibited”. The “time to downregulation of the AHR protein” value in series [2] was in the range of 2 to 4 h. Further, in the series on HIF-1α protein in tumors, the “lowering of HIF-1α protein in tumors” value was greater than 50%. In series [3], the enhancement of hypoxia is greater than 2 fold and the “pO2 in the TME” value is listed as 1.4+/−1.0 mmHg.
